Experimental data taken from patent US20070128217A1 (priority 2003, published 2007).

Legend:
[1] = test system: recombinant human anti-SARS-CoV antibody 03-018; format: binding; design: Binding of antibody 03-018 to linear peptides of the N protein of SARS-CoV Urbani / Binding of antibody 03-018 to looped/cyclic peptides of the N protein of SARS-CoV Urbani: unit not given here
[2] = test system: antibodies in sera from SARS patients (sera 1a, 1b, 2, 6, 37, 62, London, SARS-yellow, SARS-green); format: binding, human; design: Binding of serum 6 to linear peptides of protein X1 of SARS-CoV Urbani / Binding of serum 37 to linear peptides of protein X1 of SARS-CoV Urbani / Binding of serum 6 to looped/cyclic peptide (PEPSCAN-ELISA) / Binding of serum 37 to looped/cyclic peptide (PEPSCAN-ELISA) / Binding of serum 37 to looped/cyclic peptides of protein X1 of SARS-CoV Urbani / Binding of serum 6 to linear peptides of protein X2 / Binding of serum 37 to linear peptides of protein X2 / Binding of serum 37 to looped/cyclic peptides of protein X2 of SARS-CoV Urbani / Binding of serum 6 to linear peptides of protein M of SARS-CoV Urbani / Binding of serum 37 to linear peptides of protein M of SARS-CoV Urbani / Binding of serum 6 to looped/cyclic peptides of protein M of SARS-CoV Urbani / Binding of serum 37 to looped/cyclic peptides of protein M of SARS-CoV Urbani / Binding of serum 6 to linear peptides of protein X3 of SARS-CoV Urbani / Binding of serum 37 to linear peptides of protein X3 of SARS-CoV Urbani / Binding of serum 37 to looped/cyclic peptides of protein X3 of SARS-CoV Urbani / Binding of serum 6 to linear peptides of protein X4 of SARS-CoV Urbani / Binding of serum 37 to linear peptides of protein X4 of SARS-CoV Urbani / Binding of serum 37 to looped/cyclic peptides of protein X4 of SARS-CoV Urbani / Binding of serum 6 to linear peptides of protein X5 of SARS-CoV Urbani / Binding of serum 37 to linear peptides of protein X5 of SARS-CoV Urbani / Binding of serum 37 to looped/cyclic peptides of protein X5 of SARS-CoV Urbani / Binding of serum 6 to linear peptides of protein N of SARS-CoV Urbani / Binding of serum 37 to linear peptides of protein N of SARS-CoV Urbani / Binding of serum 6 to linear peptide (PEPSCAN-ELISA) / Binding of serum 1a to looped/cyclic peptides of protein N of SARS-CoV Urbani / Binding of serum 1b to looped/cyclic peptides of protein N of SARS-CoV Urbani / Binding of serum 2 to looped/cyclic peptides of protein N of SARS-CoV Urbani / Binding of serum 6 to looped/cyclic peptides of protein N of SARS-CoV Urbani / Binding of serum 37 to looped/cyclic peptides of protein N of SARS-CoV Urbani / Binding of serum 62 to looped/cyclic peptides of protein N of SARS-CoV Urbani / Binding of serum London to looped/cyclic peptides of protein N of SARS-CoV Urbani / Binding of serum SARS-green to looped/cyclic peptides of protein N of SARS-CoV Urbani: unit not given here
[3] = test system: rabbit serum obtained by immunizing a rabbit with the SARS-CoV strain Frankfurt 1; format: binding; design: Binding of a rabbit serum to linear peptides / Binding of a rabbit serum to looped peptides / Rabbit serum linear peptides / Rabbit serum looped peptides / Binding of a rabbit serum to linear peptides of protein N of SARS-CoV Urbani (Rabbit serum linear peptides) / Binding of a rabbit serum to looped/cyclic peptides of protein N of SARS-CoV Urbani (Rabbit serum looped peptides): unit not given here
[4] = test system: control sera (pooled serum of ten healthy LUMC hospital workers; commercial negative donor pooled serum from the Dutch bloodbank); format: binding, human; design: Binding of Control serum LUMC to linear peptides / Binding of Control serum Blood-bank to linear peptides / Binding of Control serum LUMC to looped peptides / Binding of Control Serum Blood-Bank to Looped peptides / Binding of Control serum LUMC to linear peptides of the protein M of SARS-CoV Urbani / Binding of Control serum Blood-bank to linear peptides of the protein M of SARS-CoV Urbani / Binding of Control serum LUMC to looped peptides of the protein M of SARS-CoV Urbani / Binding of Control Serum Blood-Bank to Looped peptides of the protein M of SARS-CoV Urbani: unit not given here

| Sequence | Binding of antibody 03-018 to linear peptides of the N protein of SARS-CoV Urbani [1] | Binding of antibody 03-018 to looped/cyclic peptides of the N protein of SARS-CoV Urbani [1] | Binding of serum 1a to linear peptide (PEPSCAN-ELISA) [2] | Binding of serum 1a to looped/cyclic peptides of protein N of SARS-CoV Urbani [2] | Binding of serum 1b to linear peptide (PEPSCAN-ELISA) [2] | Binding of serum 1b to looped/cyclic peptides of protein N of SARS-CoV Urbani [2] | Binding of serum 2 to linear peptide (PEPSCAN-ELISA) [2] | Binding of serum 2 to looped/cyclic peptides of protein N of SARS-CoV Urbani [2] | Binding of serum 6 to linear peptide (PEPSCAN-ELISA) [2] | Binding of serum 6 to looped/cyclic peptides of protein N of SARS-CoV Urbani [2] | Binding of serum 37 to linear peptide (PEPSCAN-ELISA) [2] | Binding of serum 37 to looped/cyclic peptides of protein N of SARS-CoV Urbani [2] | Binding of serum 62 to linear peptide (PEPSCAN-ELISA) [2] | Binding of serum 62 to looped/cyclic peptides of protein N of SARS-CoV Urbani [2] | Binding of serum London to linear peptide (PEPSCAN-ELISA) [2] | Binding of serum London to looped/cyclic peptides of protein N of SARS-CoV Urbani [2] | Binding of serum SARS-green to linear peptide (PEPSCAN-ELISA) [2] | Binding of serum SARS-green to looped/cyclic peptides of protein N of SARS-CoV Urbani [2] | Binding of serum SARS-yellow to linear peptide (PEPSCAN-ELISA) [2] | Binding of serum SARS-yellow to looped/cyclic peptides of protein N of SARS-CoV Urbani [2] | also measured |
| --- | --- | --- | --- | --- | --- | --- | --- | --- | --- | --- | --- | --- | --- | --- | --- | --- | --- | --- | --- | --- | --- |
| GDQDLIRQGTDYKHW | 0.1 | 0.2 | 0.2 | 0.4 | 0.1 | 0.2 | 0.2 | 0.4 | 0.3 | 0.3 | 0.6 | 0.6 | 0.7 | 0.5 | 0.9 | 0.4 | 0.5 | 0.4 | 0.7 | 0.3 | Binding of a rabbit serum to linear peptides of protein N of SARS-CoV Urbani (Rabbit serum linear peptides) [3]: 0.1; Binding of a rabbit serum to looped/cyclic peptides of protein N of SARS-CoV Urbani (Rabbit serum looped peptides) [3]: 0.5; Binding of Control Serum Blood-Bank to Looped peptides [4]: 0.6; Binding of Control serum Blood-bank to linear peptides [4]: 0.9; Binding of Control serum LUMC to linear peptides [4]: 0.8; Binding of Control serum LUMC to looped peptides [4]: 0.5 |
| GETALALLLLDRLNQ | 0.1 | 0.3 | 0.2 | 0.4 | 0.1 | 0.2 | 0.2 | 0.4 | 0.1 | 0.2 | 0.5 | 0.7 | 0.6 | 0.7 | 0.5 | 0.5 | 0.2 | 0.3 | 0.6 | 0.6 | Binding of a rabbit serum to linear peptides of protein N of SARS-CoV Urbani (Rabbit serum linear peptides) [3]: 0.2; Binding of a rabbit serum to looped/cyclic peptides of protein N of SARS-CoV Urbani (Rabbit serum looped peptides) [3]: 0.6; Binding of Control Serum Blood-Bank to Looped peptides [4]: 0.7; Binding of Control serum Blood-bank to linear peptides [4]: 0.6; Binding of Control serum LUMC to linear peptides [4]: 0.6; Binding of Control serum LUMC to looped peptides [4]: 0.7 |
